According to US6537976B1, “Dialysis solutions containing water soluble vitamins and nutrients” (priority 1997, dated 2003):
Where two headings read alike, the source gives them in different places.

Experiments:
[1] = In vitro hemodialysis of uremic plasma using dialysate solutions with and without added vitamins
Method: In the following experiment uremic plasma was dialyzed against dialysate solutions containing different concentrations of vitamins, and the total plasma levels of vitamins after dialysis was measured.
Plasma obtained from a uremic subject undergoing plasmapharesis was pooled and samples were taken for estimation of baseline vitamin levels. The total volume of 2.7 liters was divided into three equal aliquots of 900 ml each. Hemodialysis was performed on each aliquot of plasma using a F-60 polysulfone dialyzer (Fresenius Inc., USA). The plasma flow rate was 350 ml/min and the dialysate flow rate was 500 ml/min.
In the first experiment, vitamins were not added to the dialysate. In the second experiment, vitamins were added to the dialysate at a concentration that was close to the upper limit of normal, to simulate the maintenance of physiologic levels. In the third experiment, vitamins were added to the dialysate at a concentration that was 10 times that in the second experiment, with the aim of achieving supratherapeutic levels.

[2] = cited from earlier work
plasma proteins = details: subjects with normal kidney function; effects of uremia not examined; cited from earlier work
[3] = cited from earlier work; remark: listed apart in the source
[4] = cited from earlier work; remark: listed apart in the source
[5] = subjects with normal renal function; cited from earlier work
[6] = vitamin in the dialysate 0 μg/L
[7] = vitamin in the dialysate 15 μg/L
[8] = vitamin in the dialysate 150 μg/L
[9] = vitamin in the dialysate 60 μg/L
[10] = vitamin in the dialysate 600 μg/L

Cc1ncc(CO)c(CO)c1O.Cl [pyridoxine hydrochloride]
effect of addition to the dialysate on plasma PLP concentration ([1]; assay specific for esters such as PLP, does not measure pyridoxine): did not result in an increase in PLP concentration

cyanocobalamin [Vitamin B12]
Plasma concentration in hemodialysis patients receiving supplementation in high doses ([2]; vitamin B12, Bostom et al., predialysis, mean ± SD): 1.3 ± 0.4 ng/mL | Fraction of the plasma content that is protein bound (binding in words) (plasma proteins): Protein bound | solubility in water [3]: soluble in water

Nc1nc2ncc(CNc3ccc(C(=O)N[C@@H](CCC(=O)O)C(=O)O)cc3)nc2c(=O)[nH]1 [Folic acid, folic acid]
Plasma concentration in hemodialysis patients receiving supplementation in high doses ([2]; 15 mg folic acid daily for 8 weeks, predialysis, mean ± SD): 927 ± 575 μg/L with 15 | Plasma concentration of the vitamin after dialysis for 0 min (Baseline) [1, 6]: 5.8 ng/mL | Plasma concentration of the vitamin after dialysis for 45 min [1, 6]: 1.7 ng/mL | Plasma concentration of the vitamin after dialysis for 90 min [1, 6]: 3.3 ng/mL | Plasma concentration of the vitamin after dialysis for 0 min (Baseline) [1, 7]: 5.8 ng/mL | Plasma concentration of the vitamin after dialysis for 45 min [1, 7]: 32.2 ng/mL | Plasma concentration of the vitamin after dialysis for 90 min [1, 7]: 39.8 ng/mL | Plasma concentration of the vitamin after dialysis for 0 min (Baseline) [1, 8]: 5.8 ng/mL | Plasma concentration of the vitamin after dialysis for 45 min [1, 8]: 256.5 ng/mL | Plasma concentration of the vitamin after dialysis for 90 min [1, 8]: 272.2 ng/mL

O=C1O[C@H]([C@@H](O)CO)C(O)=C1O [Ascorbic acid (vit C), ascorbic acid]
Plasma concentration in hemodialysis patients receiving supplementation in high doses ([2]; 500 mg ascorbic acid/day for 2 weeks, mean ± SE): 28 ± 2 mg/L (mean ± SE), | Plasma concentration in hemodialysis patients receiving supplementation in high doses, Range ([2]; 500 mg ascorbic acid/day for 2 weeks, range): Range: 15-37 mg/L,

C[N+](C)(C)C[C@H](O)CC(=O)[O-] [L-carnitine]
Free carnitine plasma concentration in hemodialysis patients receiving supplementation in high doses ([2]; 20 mg/Kg L-carnitine intravenously three times a week following hemodialysis for 6 months, mean ± SE): Free carnitine 250 ± 11 μmol/L | Fraction of the plasma content that is protein bound (binding in words) (plasma proteins): not bound | patients showing global improvement in clinical status ([4]; 20 mg/kg intravenous after each hemodialysis session for 6 months, control group 18%): 50% | clinical effects of carnitine administration ([4]; chronic hemodialysis patients): improvement in intradialytic hypotension, muscle cramps, exercise capacity, a sense of well being | fraction of the administered dose excreted in the urine [5]: 58-65% | solubility in water [3]: water soluble

Cc1ncc(C[n+]2csc(CCO)c2C)c(N)n1 [Thiamine, thiamine]
Whole blood thiamine in hemodialysis patients receiving supplementation in high doses ([2]; 600-900 mg thiamine per week, predialysis, mean ± SD): 50 ± 12 µg/L | Fraction of the plasma content that is protein bound (binding in words) (plasma proteins): albumin | Plasma concentration of the vitamin after dialysis for 0 min (Baseline) [1, 6]: 17 ng/mL | Plasma concentration of the vitamin after dialysis for 90 min [1, 6]: 3.6 ng/mL | Plasma concentration of the vitamin after dialysis for 0 min (Baseline) [1, 9]: 17 ng/mL | Plasma concentration of the vitamin after dialysis for 90 min [1, 9]: 72 ng/mL | Ratio of Plasma to dialysate at the end of dialysis (VP/VD) [1, 9]: 1.2 | Plasma concentration of the vitamin after dialysis for 0 min (Baseline) [1, 10]: 17 ng/mL | Plasma concentration of the vitamin after dialysis for 90 min [1, 10]: >100 ng/mL

Cc1ncc(COP(=O)(O)O)c(C=O)c1O [Pyridoxal 5′-phosphate (vit B6), pyridoxal 5-phosphate]
Fraction of the plasma content that is protein bound (binding in words) (plasma proteins): albumin
